Columns and labels:
[1] = biological target: hPARG (C-terminal His6-tag) (Homo sapiens (Human), UniProt Q86W56); test: PARG Enzymatic Activity Assay (HTRF); type: biochemical; conditions: hPARG 65 pM final, biotinylated-NAD ribosylated PARP1 8 nM final
Summary of the method: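 Readout is time-resolved fluorescence at 620 and 665 nm after 60 min RT detection with streptavidin-Eu cryptate and anti-6HIS-XL665; IC50 by 4-parameter fit, 1% DMSO and no-enzyme controls. Reaction: 8 nM final ribosylated PARP1 substrate for 10 min RT, following 60 min RT enzyme (65 pM)–compound preincubation in Tris pH 7.4 buffer with EDTA, DTT, KCl.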

[2] = tested on: Kuramochi cell line; test: Cell Viability Assay (Cell Titer-Glo, 7 days); type: cell-based; conditions: 168 h, Kuramochi cells, 7 days incubation, read-out: PARG Cell viability (IC50)
Summary of the method: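 IC50 from a four-parameter fit of CellTiter-Glo luminescence, scaled between DMSO-treated (high) and medium-only (low) wells. Kuramochi cells (400/well, RPMI/10% FBS) exposed 7 days at 37 °C to 9 concentrations, 3-fold steps, in duplicate.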

Sequence of hPARG (C-terminal His6-tag) (Q86W56 whole entry): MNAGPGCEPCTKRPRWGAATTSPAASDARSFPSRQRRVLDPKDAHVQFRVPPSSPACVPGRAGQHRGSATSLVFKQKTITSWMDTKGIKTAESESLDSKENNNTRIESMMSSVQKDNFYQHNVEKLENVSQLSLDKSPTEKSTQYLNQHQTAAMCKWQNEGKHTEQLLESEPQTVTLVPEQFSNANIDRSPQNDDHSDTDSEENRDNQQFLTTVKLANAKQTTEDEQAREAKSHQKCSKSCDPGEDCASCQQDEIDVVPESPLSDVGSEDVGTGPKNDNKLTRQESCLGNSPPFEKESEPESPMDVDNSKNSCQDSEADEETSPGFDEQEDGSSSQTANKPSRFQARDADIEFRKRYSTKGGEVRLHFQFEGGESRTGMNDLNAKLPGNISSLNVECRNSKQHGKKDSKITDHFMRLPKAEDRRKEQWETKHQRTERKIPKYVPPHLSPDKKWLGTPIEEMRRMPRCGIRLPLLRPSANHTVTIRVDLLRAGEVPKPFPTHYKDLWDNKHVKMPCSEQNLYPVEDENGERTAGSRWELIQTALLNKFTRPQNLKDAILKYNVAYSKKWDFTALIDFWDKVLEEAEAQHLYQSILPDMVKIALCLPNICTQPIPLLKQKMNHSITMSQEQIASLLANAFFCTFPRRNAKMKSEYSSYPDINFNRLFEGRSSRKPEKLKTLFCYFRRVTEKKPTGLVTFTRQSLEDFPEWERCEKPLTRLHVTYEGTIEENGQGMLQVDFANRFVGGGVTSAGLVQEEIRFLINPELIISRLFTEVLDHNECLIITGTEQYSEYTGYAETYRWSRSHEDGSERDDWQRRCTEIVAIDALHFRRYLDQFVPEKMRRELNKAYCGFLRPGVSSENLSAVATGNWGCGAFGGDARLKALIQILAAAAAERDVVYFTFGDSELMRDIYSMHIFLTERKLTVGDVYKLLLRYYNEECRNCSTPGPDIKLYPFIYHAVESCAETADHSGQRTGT

SMILES	IC50 [1] [nM]	IC50 [2] [nM]
CCN1CCN(c2ncnc3c2c2ccc(S(=O)(=O)NC4(C#N)CC4)cc2n3-c2nnc(C(F)F)s2)C[C@@H]1C [Example 163, (S)-N-(1-cyanocyclopropyl)-9-(5-(difluoromethyl)-1,3,4-thiadiazol-2-yl)-4-(4-ethyl-3-methylpiperazin-1-yl)-9H-pyrimido[4,5-b]indole-7-sulfonamide]	100 to 1000	< 100
Cc1nc(N2CCN3CCOC[C@H]3C2)c2c3ccc(S(=O)(=O)NC4(C#N)CC4)cc3n(-c3nnc(C(F)F)s3)c2n1 [Example 192, (R)—N-(1-Cyanocyclopropyl)-9-(5-(difluoromethyl)-1,3,4-thiadiazol-2-yl)-4-(hexahydropyrazino[2,1-c][1,4]oxazin-8(1H)-yl)-2-methyl-9H-pyrimido[4,5-b]indole-7-sulfonamide]	100 to 1000	< 100
N#CC1(NS(=O)(=O)c2ccc3c4c(N5CCN6C(=O)OC[C@H]6C5)ncnc4n(-c4nnc(C(F)F)s4)c3c2)CC1 [Example 167, (R)-N-(1-cyanocyclopropyl)-9-(5-(difluoromethyl)-1,3,4-thiadiazol-2-yl)-4-(3-oxotetrahydro-3H-oxazolo[3,4-a]pyrazin-7(1H)-yl)-9H-pyrimido[4,5-b]indole-7-sulfonamide]	< 100	< 100
N#CC1(NS(=O)(=O)c2ccc3c4c(N5CCN(c6ccccn6)CC5)ncnc4n(-c4nnc(C(F)F)s4)c3c2)CC1 [Example 17, N-(1-Cyanocyclopropyl)-9-(5-(difluoromethyl)-1,3,4-thiadiazol-2-yl)-4-(4-(pyridin-2-yl)piperazin-1-yl)-9H-pyrimido[4,5-b]indole-7-sulfonamide]	100 to 1000	100 to 1000

Now from value to compound, other results behind:

IC50 [1] [nM]	SMILES	IC50 [2] [nM]
< 100	CO[C@H](C)C(=O)N1CCC(c2ncnc3c2c2ccc(S(=O)(=O)NC4(C)CC4)cc2n3-c2nnc(C(F)F)s2)CC1 [Example 95, (R)-9-(5-(Difluoromethyl)-1,3,4-thiadiazol-2-yl)-4-(1-(2-methoxypropanoyl)piperidin-4-yl)-N-(1-methylcyclopropyl)-9H-pyrimido[4,5-b]indole-7-sulfonamide]	< 100
< 100	CO[C@@H]1CCN(c2ncnc3c2c2ccc(S(=O)(=O)NC4(C#N)CC4)cc2n3-c2nnc(C(F)F)s2)C[C@@H]1F [Example 171, N-(1-Cyanocyclopropyl)-9-(5-(difluoromethyl)-1,3,4-thiadiazol-2-yl)-4-((3S,4R)-3-fluoro-4-methoxypiperidin-1-yl)-9H-pyrimido[4,5-b]indole-7-sulfonamide]	< 100
< 100	CC1(NS(=O)(=O)c2ccc3c4c(C5CCN(C(=O)N6CC[C@@H](O)C6)CC5)ncnc4n(-c4nnc(C(F)F)s4)c3c2)CC1 [Example 132, (R)-9-(5-(Difluoromethyl)-1,3,4-thiadiazol-2-yl)-4-(1-(3-hydroxypyrrolidine-1-carbonyl)piperidin-4-yl)-N-(1-methylcyclopropyl)-9H-pyrimido[4,5-b]indole-7-sulfonamide]	< 100
< 100	CC(C)C(=O)N1CC=C(c2ccnc3c2c2ccc(S(=O)(=O)NC4(C#N)CC4)cc2n3-c2nnc(C(F)F)s2)CC1 [Example 196, N-(1-Cyanocyclopropyl)-9-(5-(difluoromethyl)-1,3,4-thiadiazol-2-yl)-4-(1-isobutyryl-1,2,3,6-tetrahydropyridin-4-yl)-9H-pyrido[2,3-b]indole-7-sulfonamide]	100 to 1000
< 100	CC1(C(=O)N2CCN(c3ncnc4c3c3ccc(S(=O)(=O)NC5(C#N)CC5)cc3n4-c3nnc(C(F)F)s3)CC2)CCC1 [Example 4, N-(1-Cyanocyclopropyl)-9-(5-(difluoromethyl)-1,3,4-thiadiazol-2-yl)-4-(4-(1-methylcyclobutane-1-carbonyl)piperazin-1-yl)-9H-pyrimido[4,5-b]indole-7-sulfonamide]	100 to 1000

Reference: patent US20250388589A1, “TRICYCLIC HETEROCYCLIC DERIVATIVES, COMPOSITIONS AND USES THEREOF” (Danatlas Pharmaceuticals Co., Ltd., priority 2022, published 2025)
